Series [1] is described as follows: Maximum solubility in yeast culture. It is filed as physicochemical. The following applies: 28 °C; in YPD yeast culture; read-out: maximum concentration (maximum solubility). The method, then:
From o/n pre-culture in selective medium (SC-URA, 2% ethanol (v/v)), 50 mL of rich YPD medium (1% Yeast Extract, 0.5% Bacto Peptone, 2% Glucose) were seeded at a DO600 of 0.05/mL. The 50 mL of culture were distributed in a series of ten tubes on the basis of 2 mL of culture/tube, with 4 mL of culture being placed in the last tube. […] From this tube (tube 1), 2 mL of culture were placed into tube 2. Tube 2 contained 4 ml of culture and clofilium tosylate at a concentration of 256 μM. 2 mL of tube 2 were added to tube 3, and so on. Each tube contained the drug at a concentration equal to half that of the previous tube. Two controls were provided—without clofilium tosylate and with DMSO (the volume being the same as that used to dilute the clofilium tosylate). The cultures were incubated at 28° C. with stirring for 24 hours, and the optical density (DO600) was measured.

A further series deals with MIP1 yeast mutants. The series is described as follows: Fidelity of Mip1 polymerase: frequency of cells resistant to erythromycin (Ery^R). In kind it is cell-based, Saccharomyces cerevisiae. The following applies: 32 μM vs DMSO. The text has this:
A disruption of the fidelity of the Mip1 mitochondrial polymerase can be evaluated by measuring the frequency of cells resistant to erythromycin (Ery^R). The Ery^R mutations are caused by mutations in the 21S mitochondrial ribosomal RNA encoded by mtDNA that may occur after incorporation of a bad nucleotide (Baruffini, E., Lodi, T., Dallabona, C., Puglisi, A., Zeviani, M. and Ferrero, I. (2006) Genetic and Chemical rescue of the Saccharomyces cerevisiae phenotype induced by mitochondrial DNA polymerase mutations associated with progressive external ophthalmoplegia in humans. Hum. Mol. Genet., 15, 2846-2855). Measuring the resistance to erythromycin is one way to directly measure the point mutations of mtDNA.
Independent colonies were seeded in 10 mL of minimal medium (SC-TRP, 2% glucose) in the presence of 32 μM clofilium tosylate or DMSO to stationary phase. […] The mutation frequency was calculated as the number of Ery^R colonies among the total number of colonies (Baruffini, E., Lodi, T., Dallabona, C., Puglisi, A., Zeviani, M. and Ferrero, I. (2006) Genetic and Chemical rescue of the Saccharomyces cerevisiae phenotype induced by mitochondrial DNA polymerase mutations associated with progressive external ophthalmoplegia in humans. Hum. Mol. Genet., 15, 2846-2855).

A further series deals with polg-1(ok1458Δ/+) strain. Put plainly: Non-toxic concentration (MIC) in nematode, larval development over 4 days, polg-1 mutated line. In kind it is in vivo, Caenorhabditis elegans. To be noted: 1 μM to 50 μM. How it is done:
A series of NGM dishes containing clofilium tosylate at concentrations of 1 μM, 5 μM, 10 μM, 50 μM, 100 μM or 200 μM were prepared (three dishes for each concentration). Between 30 and 40 synchronised L1 larvae of the wild-type N2 BRISTOL line or mutated VC1224 line (polg-1(ok1458Δ/+)/mT1 II; +/mT1 [dpy-10(el28)] II), these being nematodes carrying a heterozygous deletion of 2149 bp in the sequence encoding the polg-1 gene, were deposited on each of these dishes.

Series [2] relates to homozygous TB2143 nematodes (polg-1(Δ/Δ)). The series is described as follows: Number of laid and hatched eggs of homozygous nematodes. It is filed as in vivo, Caenorhabditis elegans. The following applies: 50 μM vs DMSO. How it is done:
Four homozygous TB2143 larvae (polg-1(ok1548Δ/Δ)) at stage L4 were deposited on each NGM dish containing either DMSO or 50 μM clofilium tosylate (three dishes for each treatment group). They were incubated at 20° C. to adulthood stage. The adults were moved every 9 to 12 hours, over 6 to 7 days, to new dishes containing DMSO or 50 μM clofilium tosylate until there were no eggs in the uterus, and the number of laid eggs was counted. Each laying process was monitored until the following day in order to count the hatching.

The test system of series [3] is homozygous TB2143 nematodes (polg-1(ok1548Δ/Δ)). The series is described as follows: Gonad and/or intestinal extrusion (premature death) of homozygous nematodes. It is filed as in vivo, Caenorhabditis elegans. The following applies: 50 μM, until 7th day of adulthood. How it is done:
Ten homozygous TB2143 larvae (polg-1(ok1548Δ/Δ)) at stage L4 were deposited on each NGM dish containing either DMSO or 50 μM clofilium tosylate (three dishes for each treatment group) and incubated at 20° C. Their survival was monitored until the 7th day of adulthood. The number of dead animals, not responding to any stimulation, and having intestinal and/or gonad extrusion was counted. The few animals that died of dehydration at the edge of the petri dishes were excluded from the analysis.

Turning to `CCCCCCC[N+](CC)(CC)CCCCc1ccc(Cl)cc1.Cc1ccc(S(=O)(=O)[O-])cc1` [clofilium tosylate], the solubility in series [1] was 512 µM. Also, the “fidelity of the different MIP1 yeast mutants (Ery^R frequency)” value in the series on MIP1 yeast mutants is given as “no effect”. For the same compound, the larval development result in the series on polg-1(ok1458Δ/+) strain is listed as “developed similarly”. In addition, in series [2], the hatching of embryos entry is on record as “increased” and the “number of laid eggs” value is on record as “increased”. Further, the “premature death by gonad and/or intestinal extrusion” value in series [3] is on record as “reduced”.

For the origin of these results see patent US10639287B2, “Compounds for the treatment of mitochondrial diseases” (UNIVERSITE PARIS-SUD, priority 2014, dated 2020).
